Like-named read-outs stand apart in the source and are kept apart here.
Tests used:
[1] = tested on: KMS-12-BM myeloma cell line; test: Pim cell assay: phospho-BAD (S112) and total BAD in KMS-12-BM cells; assay type: cell-based; conditions: 1 hour and 50 minutes incubation
Description: The KMS-12-BM myeloma cell line was used to determine the in vitro cellular inhibition of Pim kinases. Disruption of Pim signaling by Pim inhibitors was determined by measuring the levels of phospho-BAD (S112) and total BAD. […] The cells were then incubated overnight at 37° C., 5% CO2. […] In addition to the 10-point dosing curve of the test compound, DMSO alone was run as a control. This dilution in DMSO was then diluted again into cell growth medium. Aliquots (11.1 uL) of the compound diluted in growth medium were then transferred to the appropriate wells of the 96-well plates containing cells to yield a final DMSO concentration of 0.3%. The cell plates were then incubated with compound for 1 hour and 50 minutes at 37° C., 5% CO2. After the 1 hour and 50 min incubation, the cell plates were spun at 1000 RPM for 10 minutes and the compound-containing medium was removed. […] The cell plates containing lysis buffer were then immediately stored at −70° C. These prepared lysates were then assayed for phospho-(S112) and total-BAD according to the manufacturer's protocol (Meso Scale Diagnostics, Cat # K15103D-3). The plates were read on the MSD Sector Imager 6000, and results were calculated according to the assay protocol: ((% Phosphoprotein=((2×Phospho signal)/(Phospho signal+Total signal))×100)).

Pim-1 = Pim-1 (Homo sapiens (Human), UniProt P11309); test: Pim enzyme assay (HTRF, phosphorylation of biotinylated-BAD (S112) peptide), Pim-1; assay type: biochemical
Sequence of Pim-1 (P11309 whole entry): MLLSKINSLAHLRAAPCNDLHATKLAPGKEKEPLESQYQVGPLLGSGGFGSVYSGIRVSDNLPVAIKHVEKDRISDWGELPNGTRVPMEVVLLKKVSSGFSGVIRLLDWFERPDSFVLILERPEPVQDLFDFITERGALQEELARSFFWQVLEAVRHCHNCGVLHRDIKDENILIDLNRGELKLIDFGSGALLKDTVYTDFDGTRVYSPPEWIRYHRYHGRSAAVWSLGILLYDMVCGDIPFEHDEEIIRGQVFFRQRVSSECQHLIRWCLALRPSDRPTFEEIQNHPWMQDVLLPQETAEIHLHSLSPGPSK
Outline: (§1)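 Full-length human Pim-1 or Pim-2 with an N-terminal His6 tag, expressed in Sf9 or E. coli and purified as monomer. HTRF read-out: biotinylated BAD (S112) peptide phosphorylation detected with streptavidin-APC plus Eu-anti-phospho-BAD(S112) antibody, excitation 337 nm, emission 665 nm.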

Pim-2 = Pim-2 (Homo sapiens (Human), UniProt Q9P1W9); test: Pim enzyme assay (HTRF, phosphorylation of biotinylated-BAD (S112) peptide), Pim-2; assay type: biochemical
Sequence of Pim-2 (Q9P1W9 whole entry): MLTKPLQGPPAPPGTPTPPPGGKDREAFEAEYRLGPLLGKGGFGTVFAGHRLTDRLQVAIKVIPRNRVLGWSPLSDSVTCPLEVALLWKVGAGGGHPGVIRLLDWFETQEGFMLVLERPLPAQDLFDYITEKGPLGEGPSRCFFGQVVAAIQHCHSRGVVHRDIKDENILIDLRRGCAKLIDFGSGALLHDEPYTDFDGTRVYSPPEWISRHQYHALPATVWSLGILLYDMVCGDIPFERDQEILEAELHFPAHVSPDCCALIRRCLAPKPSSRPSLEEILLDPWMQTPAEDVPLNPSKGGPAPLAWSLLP
Outline: as §1

[2] = tris(2,2,2-trifluoroacetate), read-out: KMS-12-BM IC50 IP
[3] = Homo sapiens, KMS-12-BM, read-out: KMS-12-BM IC50 IP
[4] = full length recombinant Pim-1, biotinylated-BAD (S112) peptide, HTRF, 96-well, read-out: Pim-1 IC50 IP
[5] = full length recombinant Pim-2, biotinylated-BAD (S112) peptide, HTRF, 96-well, read-out: Pim-2 IC50 IP
[6] = Homo sapiens, KMS-12-BM, read-out: KMS12_Cell_IC50
[7] = full length recombinant Pim-1, biotinylated-BAD (S112) peptide, HTRF, read-out: Pim_1_IC50
[8] = full length recombinant Pim-2, biotinylated-BAD (S112) peptide, HTRF, read-out: Pim2_IC50

C[C@H]1CCN(c2ccncc2Nc2ncc3ccc(-c4c(F)cccc4F)nn23)C[C@H]1N (single isomer, unassigned) [Example 98, N-(4-((cis)-3-amino-4-methylpiperidin-1-yl)pyridin-3-yl)-2-(2,6-difluorophenyl)imidazo[1,5-b]pyridazin-7-amine bis(2,2,2-trifluoroacetate)]
IC50 ([1]; bis(2,2,2-trifluoroacetate), read-out: KMS-12-BM IC50 IP): 12100 nM
IC50 (Pim-1; read-out: Pim-1 IC50 IP): 2.8 nM
IC50 (Pim-2; read-out: Pim-2 IC50 IP): 15.7 nM

C[C@@H]1CCN(c2ccncc2Nc2ncc3ccc(-c4c(F)cccc4F)nn23)C[C@H]1N (single isomer, unassigned) [Example 100, N-(4-((trans)-3-amino-4-methylpiperidin-1-yl)pyridin-3-yl)-2-(2,6-difluorophenyl)imidazo[1,5-b]pyridazin-7-amine tris(2,2,2-trifluoroacetate)]
IC50 [1, 2]: 77.5 nM
IC50 (Pim-1; read-out: Pim-1 IC50 IP): < 0.1 nM
IC50 (Pim-2; read-out: Pim-2 IC50 IP): 0.2 nM

N[C@H]1CCCN(c2ccccc2Nc2ncc3ccc(-c4c(F)cccc4F)nn23)C1 [Example 73, (S)-N-(2-(3-aminopiperidin-1-yl)phenyl)-2-(2,6-difluorophenyl)imidazo[1,5-b]pyridazin-7-amine]
IC50 [1, 3]: 3440 nM
IC50 (Pim-1; [4]): 2.2 nM
IC50 (Pim-2; [5]): 6.5 nM

N[C@H]1C[C@@H](F)CN(c2ccncc2Nc2ncc3ccc(-c4c(F)cccc4F)nn23)C1 [Example 48, N-(4-((3S,5R)-3-amino-5-fluoropiperidin-1-yl)pyridin-3-yl)-2-(2,6-difluorophenyl)imidazo[1,5-b]pyridazin-7-amine tris(2,2,2-trifluoroacetate)]
IC50 [1, 3]: 983 nM
IC50 (Pim-1; [4]): 0.8 nM
IC50 (Pim-2; [5]): 3.2 nM

O[C@@H]1CCN(c2ccncc2Nc2ncc3ccc(-c4c(F)cccc4F)nn23)C[C@H]1O (single isomer, unassigned) [Example 35, 1-(3-((2-(2,6-difluorophenyl)imidazo[1,5-b]pyridazin-7-yl)amino)-4-pyridinyl)-3,4-trans-piperidinediol]
IC50 [1, 3]: 667 nM
IC50 (Pim-1; [4]): 2.7 nM
IC50 (Pim-2; [5]): 8.8 nM

N[C@H]1CCCN(c2ncncc2Nc2ncc3ccc(-c4c(F)cccc4F)nn23)C1 [Example 36, (S)-N-(4-((3S)-3-amino-1-piperidinyl)-5-pyrimidinyl)-2-(2,6-difluorophenyl)imidazo[1,5-b]pyridazin-7-amine]
IC50 [1, 3]: > 31600 nM
IC50 (Pim-1; [4]): 19.2 nM
IC50 (Pim-2; [5]): 110 nM

C[C@@H]1C[C@H](N)CN(c2ccncc2Nc2nnc3ccc(-c4c(F)cccc4F)nn23)C1 [Example 90, N-(4-((3S,5R)-3-amino-5-methylpiperidin-1-yl)pyridin-3-yl)-6-(2,6-difluorophenyl)-[1,2,4]triazolo[4,3-b]pyridazin-3-amine bis(2,2,2-trifluoroacetate)]
IC50 [1, 3]: 509 nM
IC50 (Pim-1; [4]): 1 nM
IC50 (Pim-2; read-out: Pim-2 IC50 IP): 3.9 nM

C[C@@H]1C[C@H](N)CN(c2ccncc2Nc2ncc3ccc(-c4ccccn4)nn23)C1 (relative stereo) [Example 63, N-(4-((cis)-3-amino-5-methylpiperidin-1-yl)pyridin-3-yl)-2-(pyridin-2-yl)imidazo[1,5-b]pyridazin-7-amine]
IC50 [1, 3]: 235 nM
IC50 (Pim-1; [4]): 0.3 nM
IC50 (Pim-2; [5]): 1.3 nM

CN(C)C(=O)c1ccc(F)c(-c2ccc3cnc(Nc4cnccc4N4CCC[C@H](N)C4)n3n2)c1 [Example 89, (S)-3-(7-((4-(3-aminopiperidin-1-yl)pyridin-3-yl)amino)imidazo[1,5-b]pyridazin-2-yl)-4-fluoro-N,N-dimethylbenzamide tetra(2,2,2-trifluoroacetate)]
IC50 [1, 3]: 1350 nM
IC50 (Pim-1; [4]): 3.5 nM
IC50 (Pim-2; [5]): 5.3 nM

Nc1cccc(-c2ccncc2Nc2ncc3ccc(-c4c(F)cccc4F)nn23)c1 [Example 27, N-(4-(3-aminophenyl)-3-pyridinyl)-2-(2,6-difluorophenyl)imidazo[1,5-b]pyridazin-7-amine]
IC50 [1, 6]: > 1000 nM
IC50 (Pim-1; [7]): 9 nM
IC50 (Pim-2; [8]): 121 nM

N[C@H]1C[C@@H](F)CN(c2ccncc2Nc2ncc3ccc(-c4ncccc4F)nn23)C1 [Example 53, N-(4-((3S,5R)-3-amino-5-fluoro-1-piperidinyl)-3-pyridinyl)-2-(3-fluoro-2-pyridinyl)imidazo[1,5-b]pyridazin-7-amine]
IC50 [1, 3]: 1200 nM
IC50 (Pim-1; [4]): 3.4 nM
IC50 (Pim-2; [5]): 10.9 nM

N[C@H]1CCCN(c2ccncc2Nc2ncc3ccc(-c4ccc(F)cc4F)nn23)C1 [Example 12, N-(4-((3S)-3-amino-1-piperidinyl)-3-pyridinyl)-2-(2,4-difluorophenyl)imidazo[1,5-b]pyridazin-7-amine]
IC50 [1, 6]: 1760 nM
IC50 (Pim-1; [7]): 0.4 nM
IC50 (Pim-2; [8]): 3 nM

C[C@@H]1C[C@H](N)CN(c2ccncc2Nc2ncc3ccc(-c4nccs4)nn23)C1 [Example 62, N-(4-((3S,5R)-3-amino-5-methylpiperidin-1-yl)pyridin-3-yl)-2-(thiazol-2-yl)imidazo[1,5-b]pyridazin-7-amine bis(2,2,2-trifluoroacetate)]
IC50 [1, 3]: 183 nM
IC50 (Pim-1; [4]): 0.3 nM
IC50 (Pim-2; read-out: Pim-2 IC50 IP): 0.4 nM

N[C@H]1CCCN(c2ccncc2Nc2ncc3ccc(-c4nccs4)nn23)C1 [Example 8, N-(4-((3S)-3-amino-1-piperidinyl)-3-pyridinyl)-2-(1,3-thiazol-2-yl)imidazo[1,5-b]pyridazin-7-amine]
IC50 [1, 6]: 726 nM
IC50 (Pim-1; [7]): 1 nM
IC50 (Pim-2; [8]): 3 nM

C[C@H]1CN(c2ccncc2Nc2ncc3ccc(-c4nccs4)nn23)C[C@@H](N)[C@@H]1O [Example 21, (3R,4R,5S)-3-amino-5-methyl-1-(3-((2-(1,3-thiazol-2-yl)imidazo[1,5-b]pyridazin-7-yl)amino)-4-pyridinyl)-4-piperidinol]
IC50 [1, 6]: 209 nM
IC50 (Pim-1; [7]): 0.3 nM
IC50 (Pim-2; [8]): 0.6 nM

Fc1cccc(F)c1-c1ccc2cnc(Nc3cnccc3N3CCNCC3)n2n1 [Example 2, 2-(2,6-difluorophenyl)-N-(4-(1-piperazinyl)-3-pyridinyl)imidazo[1,5-b]pyridazin-7-amine]
IC50 [1, 6]: > 31000 nM
IC50 (Pim-1; [7]): 14 nM
IC50 (Pim-2; [8]): 126 nM

N[C@H]1CCCN(c2ccncc2Nc2ncc3ccc(-c4c(F)cccc4F)nn23)C1 [Example 1, N-(4-((3S)-3-amino-1-piperidinyl)-3-pyridinyl)-2-(2,6-difluorophenyl)imidazo[1,5-b]pyridazin-7-amine tris(2,2,2-trifluoroacetate)]
IC50 [1, 6]: 428 nM
IC50 (Pim-1; [7]): 0.08 nM
IC50 (Pim-2; read-out: Pim2_IC50): 0.5 nM

Fc1cccc(F)c1-c1ccc2cnc(Nc3cnccc3OC3CNC3)n2n1 [Example 9, N-(4-(3-azetidinyloxy)-3-pyridinyl)-2-(2,6-difluorophenyl)imidazo[1,5-b]pyridazin-7-amine]
IC50 [1, 6]: 10300 nM
IC50 (Pim-1; [7]): 14 nM
IC50 (Pim-2; [8]): 99 nM

C[C@@H]1C[C@H](N)CN(c2ccncc2Nc2ncc3ccc(-c4cc(C(=O)NC5CC5)ccc4F)nn23)C1 [Example 72, 3-(7-((4-((3S,5R)-3-amino-5-methyl-1-piperidinyl)-3-pyridinyl)amino)imidazo[1,5-b]pyridazin-2-yl)-N-cyclopropyl-4-fluorobenzamide]
IC50 [1, 3]: 86.4 nM
IC50 (Pim-1; [4]): 0.1 nM
IC50 (Pim-2; [5]): 0.1 nM

C[C@@H]1C[C@H](N)CN(c2ccncc2Nc2ncc3ccc(-c4ncccc4Cl)nn23)C1 [Example 79]
IC50 [1, 3]: 132 nM
IC50 (Pim-1; [4]): 0.2 nM
IC50 (Pim-2; [5]): 0.5 nM

C[C@@H]1C[C@H](N)CN(c2ccncc2Nc2ncc3ccc(-c4ccccc4F)nn23)C1 (single isomer, unassigned) [Example 46, N-(4-((cis)-3-amino-5-methylpiperidin-1-yl)pyridin-3-yl)-2-(2-fluorophenyl)imidazo[1,5-b]pyridazin-7-amine tris(2,2,2-trifluoroacetate)]
IC50 [1, 2]: 52.1 nM
IC50 (Pim-1; [4]): < 0.1 nM
IC50 (Pim-2; [5]): 0.1 nM

C[C@H]1CN(c2ccncc2Nc2ncc3ccc(-c4ncccc4F)nn23)C[C@@H](N)[C@@H]1O [Example 66, (3R,4R,5S)-3-amino-1-(3-((2-(3-fluoropyridin-2-yl)imidazo[1,5-b]pyridazin-7-yl)amino)pyridin-4-yl)-5-methylpiperidin-4-ol]
IC50 [1, 3]: 115 nM
IC50 (Pim-1; [4]): 0.3 nM
IC50 (Pim-2; [5]): 1.3 nM

C[C@@H]1CN(c2ccncc2Nc2ncc3ccc(-c4c(F)cccc4F)nn23)C[C@@H](N)[C@H]1O [Example 41, (3R,4S,5R)-3-amino-1-(3-((2-(2,6-difluorophenyl)imidazo[1,5-b]pyridazin-7-yl)amino)-4-pyridinyl)-5-methyl-4-piperidinol]
IC50 [1, 3]: 148 nM
IC50 (Pim-1; [4]): 0.1 nM
IC50 (Pim-2; [5]): 0.5 nM
